Test results as given in patent US20250213532A1, “5-METHOXY-N,N-[…][…] THE TREATMENT OF BIPOLAR DISORDER” (GH RESEARCH IRELAND LIMITED, priority 2022, published 2025).

Experiments:
[1] = system: patients with treatment-resistant major depressive disorder (TRD); experiment: Phase 1/2 clinical trial of inhaled 5-MeO-DMT in TRD: BPRS; format: in vivo, human; details: for BPRS Emotional Withdrawal percentage improvement / BPRS Emotional Withdrawal score (sum): baseline 13
Source text: The Brief Psychiatric Rating Scale (BPRS) is intended to screen for psychiatric symptoms in a structured fashion. The scale is one of the most widely used scales to measure psychotic symptoms and was first published in 1962. The design has later been updated.
The 18 items (somatic concern, anxiety, emotional withdrawal, conceptual disorganization, guilt feelings, tension, mannerisms and posturing, grandiosity, depressive mood, hostility, suspiciousness, hallucinatory behaviour, motor retardation, uncooperativeness, unusual thought content, blunted affect, excitement and disorientation) are scored and each item is rated on a scale of 1-7.
Based on the answers and the behaviours observed, a physician or psychologist will complete the BPRS form by ranking the severity of each area using a scale of one to seven: a score of one means an absence of signs or symptoms up to a score of seven that means it is present and at a severe level. If it is not possible to rate the specific signs or symptoms, a score of 0 or “Not assessed” is recorded.
Patients were assigned to different groups.
This trial was designed in two parts.

[2] = system: patients with clinically diagnosed postpartum depression (PPD); experiment: Clinical trial of inhaled 5-MeO-DMT in postpartum depression: MADRS; format: in vivo, human; details: one PPD patient; for MADRS Concentration Difficulties improvement / MADRS Concentration Difficulties score / MADRS Reduced appetite improvement / MADRS Reduced appetite score / MADRS Suicidal Thoughts improvement / MADRS Suicidal Thoughts score: baseline 0; for MADRS Inability to Feel improvement / MADRS Inability to Feel score / MADRS Lassitude improvement / MADRS Lassitude score: baseline 3; for MADRS Pessimistic Thoughts improvement / MADRS Pessimistic Thoughts score / MADRS Reported sadness improvement / MADRS Reported sadness score: baseline 4; for MADRS Apparent sadness improvement / MADRS Apparent sadness score / MADRS Inner Tension improvement / MADRS Inner Tension score / MADRS Reduced Sleep improvement / MADRS Reduced Sleep score: baseline 5
Source text: The patient completed all planned visit days.

[3] = Pharmacokinetics after single inhaled dose (LC-MS/MS); format: in vivo, human
Method: Blood samples were obtained at 1; 2; 4; 7; 10; 15; 20; 30; 45 min and 1; 1.5; 2; 3; 4 hours after administration.
PK parameters were generated by algebraic analysis of the concentration versus time plots for each individual. The analysis was carried out using the software Phoenix WinNonlin 6.3.

[4] = system: patients with treatment-resistant major depressive disorder (TRD); experiment: Phase 1/2 clinical trial of inhaled 5-MeO-DMT in TRD: safety and tolerability; details: Part A
Method: This trial was designed in two parts. Part A was an open-label, single-arm, single-dose Phase 1 trial with two dose levels (12 mg (n=4) and 18 mg (n=4)). […] The primary endpoint of Part B was to assess the effects on the severity of depression, as assessed by the proportion of patients in remission on day seven after dosing, defined as a MADRS total score of less than or equal to 10.

[5] = 12 mg n=4, 3 hours, baseline 11
[6] = 12 mg n=4, 3 hours, baseline 14
[7] = 12 mg n=4, 3 hours, baseline 18
[8] = 12 mg n=4, 3 hours, baseline 25

## COc1ccc2[nH]cc(CCN(C)C)c2c1 [5-MeO-DMT]
[1]; [5]
  BPRS Blunted Affect percentage improvement: 27%
  BPRS Blunted Affect score (sum): 8
[1]; 12 mg n=4, 3 hours
  BPRS Emotional Withdrawal percentage improvement: 15%
  BPRS Emotional Withdrawal score (sum): 11
[1]; [6]
  BPRS Tension percentage improvement: 36%
  BPRS Tension score (sum): 9
[1]; [7]
  BPRS Guilt Feelings percentage improvement: 50%
  BPRS Guilt Feelings score (sum): 9
[1]; [8]
  BPRS Anxiety percentage improvement: 56%
  BPRS Anxiety score (sum): 11
[1]; 12 mg n=4, Day 1, baseline 11
  BPRS Blunted Affect score (sum): 6
[1]; 12 mg n=4, Day 1
  BPRS Emotional Withdrawal score (sum): 8
[1]; 12 mg n=4, Day 1, baseline 14
  BPRS Tension percentage improvement: 57%
  BPRS Tension score (sum): 6
[1]; 12 mg n=4, Day 1, baseline 18
  BPRS Guilt Feelings percentage improvement: 72%
  BPRS Guilt Feelings score (sum): 5
[1]; 12 mg n=4, Day 1, baseline 25
  BPRS Anxiety percentage improvement: 76%
  BPRS Anxiety score (sum): 6
[1]; 12 mg n=4, Day 7, baseline 11
  BPRS Blunted Affect score (sum): 5
[1]; 12 mg n=4, Day 7
  BPRS Emotional Withdrawal score (sum): 6
[1]; 12 mg n=4, Day 7, baseline 14
  BPRS Tension percentage improvement: 57%
  BPRS Tension score (sum): 6
[1]; 12 mg n=4, Day 7, baseline 18
  BPRS Guilt Feelings percentage improvement: 72%
  BPRS Guilt Feelings score (sum): 5
[1]; 12 mg n=4, Day 7, baseline 25
  BPRS Anxiety percentage improvement: 76%
  BPRS Anxiety score (sum): 6
[1]; IDR n=8, 3 hours
  BPRS Emotional Withdrawal percentage improvement: 38%
  BPRS Emotional Withdrawal score (sum): 8
[1]; IDR n=8, 3 hours, baseline 15
  BPRS Blunted Affect percentage improvement: 27%
  BPRS Blunted Affect score (sum): 11
[1]; IDR n=8, 3 hours, baseline 16
  BPRS Tension percentage improvement: 31%
  BPRS Tension score (sum): 11
[1]; IDR n=8, 3 hours, baseline 34
  BPRS Guilt Feelings percentage improvement: 59%
  BPRS Guilt Feelings score (sum): 14
[1]; IDR n=8, 3 hours, baseline 37
  BPRS Anxiety percentage improvement: 49%
  BPRS Anxiety score (sum): 19
[1]; IDR n=8, Day 1
  BPRS Emotional Withdrawal score (sum): 8
[1]; IDR n=8, Day 1, baseline 15
  BPRS Blunted Affect score (sum): 8
[1]; IDR n=8, Day 1, baseline 16
  BPRS Tension percentage improvement: 31%
  BPRS Tension score (sum): 11
[1]; IDR n=8, Day 1, baseline 34
  BPRS Guilt Feelings percentage improvement: 68%
  BPRS Guilt Feelings score (sum): 11
[1]; IDR n=8, Day 1, baseline 37
  BPRS Anxiety percentage improvement: 57%
  BPRS Anxiety score (sum): 16
[1]; IDR n=8, Day 7
  BPRS Emotional Withdrawal score (sum): 8
[1]; IDR n=8, Day 7, baseline 15
  BPRS Blunted Affect score (sum): 8
[1]; IDR n=8, Day 7, baseline 16
  BPRS Tension percentage improvement: 38%
  BPRS Tension score (sum): 10
[1]; IDR n=8, Day 7, baseline 34
  BPRS Guilt Feelings percentage improvement: 71%
  BPRS Guilt Feelings score (sum): 10
[1]; IDR n=8, Day 7, baseline 37
  BPRS Anxiety percentage improvement: 54%
  BPRS Anxiety score (sum): 17
[2]
  MADRS remission (total score equal or less than 10): fulfilled standard criteria
  MADRS response (at least 50% improvement from baseline): fulfilled standard criteria
[2]; 2 hr
  MADRS Concentration Difficulties improvement: 0
  MADRS Concentration Difficulties score: 0
  MADRS Reduced appetite improvement: 0
  MADRS Reduced appetite score: 0
  MADRS Suicidal Thoughts improvement: 0
  MADRS Suicidal Thoughts score: 0
  MADRS Inability to Feel improvement: 3
  MADRS Inability to Feel score: 0
  MADRS Lassitude improvement: 3
  MADRS Lassitude score: 0
  MADRS Pessimistic Thoughts improvement: 4
  MADRS Pessimistic Thoughts score: 0
  MADRS Reported sadness improvement: 4
  MADRS Reported sadness score: 0
  MADRS Apparent sadness improvement: 5
  MADRS Apparent sadness score: 0
  MADRS Inner Tension improvement: 5
  MADRS Inner Tension score: 0
  MADRS Reduced Sleep improvement: 0
  MADRS Reduced Sleep score: 5
[2]; Day 1
  MADRS Concentration Difficulties improvement: 0
  MADRS Concentration Difficulties score: 0
  MADRS Reduced appetite improvement: 0
  MADRS Reduced appetite score: 0
  MADRS Suicidal Thoughts improvement: 0
  MADRS Suicidal Thoughts score: 0
  MADRS Inability to Feel improvement: 3
  MADRS Inability to Feel score: 0
  MADRS Lassitude improvement: 3
  MADRS Pessimistic Thoughts improvement: 4
  MADRS Pessimistic Thoughts score: 0
  MADRS Reported sadness improvement: 4
  MADRS Reported sadness score: 0
  MADRS Apparent sadness improvement: 5
  MADRS Apparent sadness score: 0
  MADRS Inner Tension improvement: 5
  MADRS Inner Tension score: 0
  MADRS Reduced Sleep improvement: 5
  MADRS Reduced Sleep score: 0
[2]; Day 7
  MADRS Concentration Difficulties improvement: 0
  MADRS Concentration Difficulties score: 0
  MADRS Reduced appetite improvement: 0
  MADRS Reduced appetite score: 0
  MADRS Suicidal Thoughts improvement: 0
  MADRS Suicidal Thoughts score: 0
  MADRS Inability to Feel improvement: 3
  MADRS Inability to Feel score: 0
  MADRS Lassitude improvement: 3
  MADRS Lassitude score: 0
  MADRS Pessimistic Thoughts improvement: 4
  MADRS Pessimistic Thoughts score: 0
  MADRS Reported sadness improvement: 4
  MADRS Reported sadness score: 0
  MADRS Apparent sadness improvement: 5
  MADRS Apparent sadness score: 0
  MADRS Inner Tension improvement: 4
  MADRS Inner Tension score: 1
  MADRS Reduced Sleep improvement: 5
  MADRS Reduced Sleep score: 0
[2]; IDR 6 mg then 12 mg
  Durability of clinical response: sustained over the 7-day follow-up period
  Time to clinical response after administration: ≤ 2 h
[3]; dosing schemes relying on uptitration
  Pharmacokinetics under uptitration dosing schemes vs single dose: Substantially similar results
[3]; repeated administration within a time frame of 1 to 4 hours
  Accumulation upon repeated administration: No accumulation
[4]; 12 mg single dose
  Patients who experienced at least one ADR: 3 of 4
[4]; 18 mg single dose
  Patients who experienced at least one ADR: 3 of 4
